Measured values taken from patent publication US20070275904A1, “CONJUGATES OF AZIRIDINYL-EPOTHILONE ANALOGS AND PHARMACEUTICAL COMPOSITIONS COMPRISING SAME” (BRISTOL-MYERS SQUIBB COMPANY, priority 2006, published 2007).
Like-named read-outs stand apart in the source and are kept apart here.

What was measured:
[1] = target: T1, FR expressed on KB tumor cells (Homo sapiens, UniProt P15328); assay: Displacement of radiolabeled folic acid from FR on KB tumor cells; type: binding; details: compared to folic acid, RA of folic acid=1.0
T1 construct: FR expressed on KB tumor cells grown to confluence; endogenous in cells; host or cells: KB tumor cells
T1 sequence (P15328 25-234): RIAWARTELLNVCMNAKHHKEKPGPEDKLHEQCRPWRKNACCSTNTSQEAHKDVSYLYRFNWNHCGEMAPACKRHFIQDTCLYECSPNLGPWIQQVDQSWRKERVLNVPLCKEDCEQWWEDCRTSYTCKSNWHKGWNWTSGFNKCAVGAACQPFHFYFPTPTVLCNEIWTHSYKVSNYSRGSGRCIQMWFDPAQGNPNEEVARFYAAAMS
Description: The binding of folate conjugates of Compound AA to FR was determined in an assay that measures displacement of radiolabeled folic acid from FR expressed on KB tumor cells grown to confluence.

[2] = tested on: clonogenic KB cancer cells; assay: Clonogenic cell survival (colony formation) assay, KB cells; type: cell-based, human; details: FIG. 3; for fold by which compound G is more potent than the named compound (IC90): KB cells, 17 hours exposure
Description: Cancer cells were seeded at 3.0E+05 cells in a T75 flask with 10 ml of RPMI1640 media, free of folic acid, and containing 10% fetal bovine serum and 25 mM HEPES. Cells were grown in a 37° C. incubator containing 5% CO2 for 2 days. On day 2, supernatants were removed from the flasks, and the flasks were divided into 2 groups. One group of cells were incubated with 5 ml of media containing […] of folic acid (Sigma) for 30 minutes and the others were grown in 5 ml of media without added folic acid. Cells were then treated with 20 nM of epothilone, epothilone analog, conjugated epothilone, or conjugated epothilone analog for one hour. At the end of the incubation, the drugs were removed from the flasks and the cells were washed with PBS buffer 3×. After washing, 5 ml of complete media were added into each flask, and the cell was grown in the CO2 incubator for 23 hours. The next morning, the cells were removed from the flasks by trypsinization, cell numbers were determined, and then cells were plated in a 6 well plates. Ten days after plating, colonies were stained with crystal violet and counted. The surviving fractions were determined.
This is important because it is the aziridine epothilone analog, e.g., Compound G, that mediates the antitumor effects upon release from folic acid. […] The concentration needed to kill 90% of clonogenic KB cancer cells (IC90) was determined after a drug exposure duration of 17 hours.

[3] = KB in vivo FRα(+) tumor model, xenografts in nude mice; details: mouse, in vivo; KB model, nude mice, IV; read-out: maximum tolerated dose (MTD)
Source text: (§1) Female CD2F1 mice (Harlan Sprague-Dawley Inc., 20-22 g) maintained in a controlled environment and provided with water and food ad libitum were used in these studies. The murine FRα(−) Madison 109 (M109) lung carcinoma (Marks et al., 1977) and the FR-expressing (FRα(+)) 98M109 variant were used to evaluate the efficacy of the epothilone, epothilone analog (e.g., epothilone derivative), folate-epothilone conjugate, or folate-epothilone analog conjugate. In addition, the human head and neck epidermoid carcinoma KB grown in nude mice was also used for this purpose.
(§2) For administration of epothilones or epothilone analogs to mice, an excipient consisting of the following was used: CREMOPHOR®/ethanol/water (1:1:8, v/v). The compounds were first dissolved in a mixture of CREMOPHOR®/ethanol (50:50). Final dilution to the required dosage strength was made less than 1 hr before drug administration. Mice were administered the agents by bolus IV injection through the tail vein. Folate-epothilone conjugates or folate-epothilone analog conjugates were prepared in sterile phosphate buffered saline and administered to mice by IV bolus injection through the tail vein at a volume of 0.01 mL/g of mice. Treatment of each animal was based on individual body weight. […]
(§3) Tumor response was determined by measurement of tumors with a caliper twice a week, until the tumors reached a predetermined “target” size of 1 gm. […]
(§4) Antitumor activity was evaluated at the maximum tolerated dose (MTD) which is defined as the dose level immediately […] which excessive toxicity (i.e. more than one death) occurred. When death occurred, the day of death was recorded. […]
(§5) To estimate tumor cell kill, the tumor volume doubling time (TVDT) was first calculated with the formula: TVDT=Median time (days) for control tumors to reach target size−Median time (days) for control tumors to reach half the target size And, Log cell kill=T−C÷(3.32×TVDT) Statistical evaluations of data were performed using Gehan's generalized Wilcoxon test.

[4] = FRα(−) M109 parent tumor model in mice; type: in vivo; details: female, CD2F1, mouse, in vivo, M109 model, IV, read-out: maximum tolerated dose (MTD)
Source text: as §1
(§6) For administration of epothilones or epothilone analogs to mice, an excipient consisting of the following was used: CREMOPHOR®/ethanol/water (1:1:8, v/v). The compounds were first dissolved in a mixture of CREMOPHOR®/ethanol (50:50). Final dilution to the required dosage strength was made less than 1 hr before drug administration. Mice were administered the agents by bolus IV injection through the tail vein. Folate-epothilone conjugates or folate-epothilone analog conjugates were prepared in sterile phosphate buffered saline and administered to mice by IV bolus injection through the tail vein at a volume of 0.01 mL/g of mice. Treatment of each animal was based on individual body weight.
(§7) The required number of animals needed to detect a meaningful response were pooled at the start of the experiment and each was given a subcutaneous inoculation of a tumor brei (2% w/v). Tumors were allowed to grow for 4 days. On the fourth day, animals were evenly distributed to various treatment and control groups. Treated animals were checked daily for treatment related toxicity/mortality. Each group of animals was weighed before the initiation of treatment (Wt1) and then again following the last treatment dose (Wt2). The difference in body weight (Wt2−Wt1) provides a measure of treatment-related toxicity.
(§8) Tumor response was determined by measurement of tumors with a caliper twice a week, until the tumors reached a predetermined “target” size of 1 gm. Tumor weights (mg) were estimated from the formula: Tumor weight=(length×width^2)÷2
as §4, §5

[5] = tested on: FRα(−) M109 murine lung carcinoma; assay: FRα(−) M109 parent tumor model in mice; type: in vivo; details: IV bolus, FIG. 5
Source text: as §1, §6, §7, §8, §4, §5

[6] = tested on: KB nasopharyngeal epidermoid carcinoma xenografts; assay: KB in vivo FRα(+) tumor model, xenografts in nude mice; details: FIG. 4
Source text: as §1, §2, §3, §4, §5

FRα(+) 98M109 tumors = assay: FRα(+) 98M109 tumor model, competition with a folate analog; type: in vivo, mice; details: folate analog at 20-fold excess of the dose of compound J; FIG. 6
Source text: Female CD2F1 mice (Harlan Sprague-Dawley Inc., 20-22 g) maintained in a controlled environment and provided with water and food ad libitum were used in these studies. The murine FRα(−) Madison 109 (M109) lung carcinoma (Marks et al., 1977) and the FR-expressing (FRα(+)) 98M109 variant were used to evaluate the efficacy of the epothilone, epothilone analog (e.g., epothilone derivative), folate-epothilone conjugate, or folate-epothilone analog conjugate. In addition, the human head and neck epidermoid carcinoma KB grown in nude mice was also used for this purpose. […]
as §3, §4, §5

[7] = tested on: A2780 ovarian carcinoma cell line; assay: cells; type: cell-based, human; details: read-out: A2780 IC5
Description: (§9) In vitro cytotoxicity was assessed in tumor cells using a tetrazolium-based colorimetric assay which takes advantage of the metabolic conversion of MTS (3-(4,5-dimethylthiazol-2-yl)-5-(3-carboxymethoxyphenyl)-2-([…])-2H-tetrazolium, inner salt) to a reduced form that absorbs light at 492 nm. Cells were seeded 24 hr prior to addition of the epothilone, epothilone analog, conjugated epothilone, or conjugated epothilone analog. Following a 72 hour incubation at 37° C. with serially diluted compound, MTS, in combination with the electron coupling agent phenazine methosulfate, was added to the cells. The incubation was continued for 3 hours, then the absorbancy of the medium at 492 nm was measured with a spectrophotometer to obtain the number of surviving cells relative to control populations. The results are expressed as median cytotoxic concentrations (IC50 values).
(§10) Other epothilone analogs, e.g., aziridinyl epothilones, are known in the art (see, e.g., U.S. Pat. No. 6,399,638; Regueiro-Ren, A, et al. (2001) Org. Letters. 3:2693-96) and show potent antitumor cytotoxicity. For example, an MTS assay that compared the relative cytotoxic potency of a number of epothilone analogs against a pair of taxane-resistant cancer cell lines (HCTVM46 and […]) was conducted (see Table 1). HCTVM46 is a human colon carcinoma cell line derived from the sensitive HCT116 parent line, and is resistant to taxanes due to overexpression of the 170 kD p-glyprotein drug efflux transporter. A2780Tax is a human ovarian carcinoma cell line derived from the parent A2780 line, and is resistant to paclitaxel as a result of a mutation in the tubulin amino acid sequence that impairs the ability of paclitaxel to bind.
(§11) As is shown in Table 1, various aziridinyl epothilone analogs (Compounds CC-EE) show potent antitumor activity against both the HCT116 colon and A2780 ovarian carcinoma cell lines, compared to other known antitumor agents, e.g., paclitaxel, compound AA, and epothilone B.

[8] = tested on: HCT116 colon carcinoma cell line; assay: cells; type: cell-based, human; details: read-out: HCT116 IC50
Description: as §9, §10, §11

[9] = tested on: HCT116VM46 (HCTVM46) human colon carcinoma cell line; type: cell-based; details: R/S ratio = HCT116 IC50/HCT116VM46IC50 as printed
Description: as §9, §10

[10] = tested on: A2780Tax human ovarian carcinoma cell line; assay: In vitro MTS assay, paclitaxel-resistant A2780Tax versus A2780; type: cell-based
Description: as §9, §10

Phase II clinical trials = details: in vivo
[11] = Homo sapiens, HCT-116, Mean IC50 ± SD from four separate experiments, MTS, 72 hour incubation
[12] = Mean IC50 ± SD from four separate experiments, MTS, 72 hour incubation

Nc1nc2ncc(CNc3ccc(C(=O)N[C@@H](CCC(=O)O)C(=O)O)cc3)nc2c(=O)[nH]1 [folic acid]
relative affinity (RA) for folate receptor [1]: 1.0

C/C(=C\c1csc(C)n1)[C@@H]1C[C@@H]2O[C@]2(C)CCC[C@H](C)[C@H](O)[C@@H](C)C(=O)C(C)(C)[C@@H](O)CC(=O)N1 [ixabepilone]
fold by which compound G is more potent than the named compound (IC90) [2]: ~6 fold | MTD [3]: 5 µmol/kg | MTD [4]: 5 µmol/kg | antitumor activity in FRα(−) M109 parent tumor model [5]: active at its MTD

C/C(=C\c1csc(C)n1)[C@@H]1C[C@H]2[C@@H](CCC[C@H](C)[C@H](O)[C@@H](C)C(=O)C(C)(C)[C@@H](O)CC(=O)O1)N2CCOC(=O)OCCSSC[C@H](NC(=O)[C@H](CC(=O)O)NC(=O)[C@H](CCCNC(=N)N)NC(=O)[C@H](CC(=O)O)NC(=O)CC[C@H](NC(=O)c1ccc(NCc2cnc3nc(N)[nH]c(=O)c3n2)cc1)C(=O)O)C(=O)O (stereo partly drawn) [Compound J]
relative affinity (RA) for folate receptor [1]: 0.77 | toxicity at the two dose levels below MTD ([6]; KB model): minimal toxicity | antitumor effects compared at the MTDs ([6]; versus ixabepilone): superior antitumor effects than ixabepilone | MTD [4]: 2.4 µmol/kg | antitumor activity in FRα(−) M109 parent tumor model [5]: poor activity at all dose levels tested | effect of co-administered folate analog on antitumor effects (FRα(+) 98M109 tumors): protect FRα(+) 98M109 tumors from the antitumor effects of compound J

C/C(=C\c1csc(CN)n1)[C@@H]1CC2O[C@]2(C)CCC[C@H](C)[C@H](O)[C@@H](C)C(=O)C(C)(C)[C@@H](O)CC(=O)O1 (stereo partly drawn) [Compound AA]
IC50 ([7]; Homo sapiens, A2780, Mean IC50 ± SD from four separate experiments, MTS, 72 hour incubation): 1.1 ± 0.4 nM | IC50 [8, 11]: 1.2 ± 0.3 nM | R/S Ratio (HCT116) [9]: 14.8 | R/S Ratio (A2780) [10]: 3 | fold by which compound G is more potent than the named compound (IC90) [2]: ~4 fold | activity in Phase II clinical trials (Phase II clinical trials): has activity

C/C(=C\c1csc(C)n1)C1C[C@H]2[C@@H](CCC[C@H](C)[C@H](O)[C@@H](C)C(=O)C(C)(C)[C@@H](O)CC(=O)O1)N2C (stereo partly drawn) [DD]
IC50 ([7]; Homo sapiens, A2780, 72 h): 0.25 ± 0.06 nM | IC50 ([8]; Homo sapiens, HCT-116, 72 h): 0.37 ± 0.13 nM | R/S Ratio (HCT116) [9]: 0.6 | R/S Ratio (A2780) [10]: 4.1

CC(=O)O[C@H]1C(=O)[C@@]2(C)[C@H]([C@H](OC(=O)c3ccccc3)[C@]3(O)C[C@H](OC(=O)[C@H](O)[C@@H](NC(=O)c4ccccc4)c4ccccc4)C(C)=C1C3(C)C)[C@]1(OC(C)=O)CO[C@@H]1C[C@@H]2O [paclitaxel]
IC50 [8, 11]: 3.3 ± 1 nM | R/S Ratio (A2780) [10]: 22.1

C/C(=C\c1csc(C)n1)[C@@H]1CC2[C@@H](CCC[C@H](C)[C@H](O)[C@@H](C)C(=O)C(C)(C)[C@@H](O)CC(=O)O1)[N@@]2CCO (relative stereo) [Compound G, [1S-[1R*,3R*(E),7R*,10S*,11R*,12R*,16S*]]-7,11-Dihydroxy-17-[2-hydroxyethyl]-8,8,10,12-tetramethyl-3-[1-methyl-2-(2-methyl-4-thiazolyl)ethenyl]-4-oxa-17-azabicyclo[14.1.0]heptadecane-5,9-dione]
IC90, concentration needed to kill 90% of clonogenic KB cancer cells ([2]; drug exposure duration of 17 hours): 4.3 nM

C/C(=C\c1csc(C)n1)[C@@H]1C[C@@H]2O[C@]2(C)CCC[C@H](C)[C@H](O)[C@@H](C)C(=O)C(C)(C)[C@@H](O)CC(=O)O1 [Epothilone B]
IC50 [7, 12]: 0.23 ± 0.09 nM | IC50 [8, 12]: 0.4 ± 0.13 nM | R/S Ratio (HCT116) [9]: 0.5 | R/S Ratio (A2780) [10]: 2.5

C/C(=C\c1csc(C)n1)C1C[C@@H]2N[C@@H]2CCC[C@H](C)[C@H](O)[C@@H](C)C(=O)C(C)(C)[C@@H](O)CC(=O)O1 (stereo partly drawn) [Compound CC]
IC50 ([7]; Homo sapiens, A2780, 72 h): 3.4 ± 1.5 nM | IC50 ([8]; Homo sapiens, HCT-116, 72 h): 4.2 ± 2.8 nM | R/S Ratio (HCT116) [9]: 3.1 | R/S Ratio (A2780) [10]: 4.7 | fold by which compound G is more potent than the named compound (IC90) [2]: ~2 fold
